Assay results taken from PubChem BioAssay (NCI).
Values joined by “and” are separate entries in the source; they are usually repeats but may differ in a detail not shown here. Equal values may be shown once.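 Dose response: 5 concentrations. Exposure: 48 h. Format: 96-well plates. Endpoint: linear interpolation; highest concentration if not reached. GI50 = concentration required for 50% inhibition of growth. Definition used: TGI = concentration required for complete inhibition of growth.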

What was measured:
Test in all cases: NCI anticancer screen, dose series, 48 h
HS 578T breast = test system: HS 578T breast
MCF7 breast = test system: MCF7 breast
MDA-MB-435 = test system: MDA-MB-435
NCI/ADR-RES ovarian = test system: NCI/ADR-RES ovarian
PC-3 prostate = test system: PC-3 prostate
DLD-1 colon = test system: DLD-1 colon
LXFL 529 NSCLC = test system: LXFL 529 NSCLC

Row | SMILES | GI50 (HS 578T breast) [nM] | TGI (HS 578T breast) [µM] | GI50 (MCF7 breast) [nM] | TGI (MCF7 breast) [µM] | GI50 (MDA-MB-435) | TGI (MDA-MB-435) | GI50 (NCI/ADR-RES ovarian) [nM] | TGI (NCI/ADR-RES ovarian) [µM] | GI50 (PC-3 prostate) [nM] | TGI (PC-3 prostate) [µM] | TGI (DLD-1 colon) [µM] | TGI (LXFL 529 NSCLC) [µM]
1 | CC(=Nc1ccccc1)C1=C(O)C(Cc2ccc(F)cc2)NC1=O (centres undefined) | 2440 | > 100 | 412 | > 100 | 160 nM | 0.449 µM | 420 | 13.8 | 894 | > 100 |  | 
2 | Cc1ccc2c(c1)-c1oc(=O)c(-c3cc4ccccc4oc3=O)cc1C(O)O2 (centres undefined) | 24000 | 47.7 | 31700 | > 100 | 19200 nM | 45.6 µM | 23200 | 52.3 | 45200 | > 100 |  | 
3 | CCOC(=O)C(=O)C(/C(=N/N(C)C)C(=O)Nc1ccc(C)cc1C)c1nc2ccccc2[nH]c1=O (centres undefined) |  | > 100 |  | > 100 |  | > 100 µM |  | > 100 |  | > 100 |  | 
4 | COc1cc2ccc3c4cc(OC)c(OC(C)C)cc4c[n+](C)c3c2cc1OC |  |  |  |  |  |  |  |  |  |  | > 100 | > 100
5 | CCN(CC)c1ccc(/C=N/NC(=O)c2ccccc2Nc2ccnc(C(F)(F)F)c2)c(O)c1 | 1110 | > 51.6 | 248 | > 100 | 428 nM | > 100 µM | 273 | 14 | 997 | > 100 |  | 
6 | C#CCN(Cc1nc2cc(C(F)(F)F)ccc2nc1-c1ccccc1)c1ccc(F)cc1 | 34700 | > 100 | 23200 | > 100 | 38000 nM | > 100 µM | 29100 | 84.7 | 32000 | > 100 |  | 
7 | CN1CCN(Cc2ccc(NC(=O)c3cccc(C#Cc4c(N)ncc5ccc(F)cc45)c3)cc2C(F)(F)F)CC1 | 627 | 1.97 | 768 | 1.53 | 763 nM | 1.47 µM | 1020 | 2.55 | 852 | 1.86 |  | 
8 | C[C@H](C(O)CC(=O)C(C)(C)O)[C@H]1CC[C@@]2(C)[C@@H]3CC[C@H]4C(C)(C)[C@@H](OC5OC(COC6OC(CO)C(O)C(O)C6O)C(O)C(O)C5O)CC[C@]4(C)C3=CC[C@]12C (some centres undefined) |  | > 100 |  | > 100 |  | > 100 µM |  |  |  | > 100 |  | 
9 | O=C(Nc1ccc(N2CCNCC2)cn1)c1[nH]ncc1Nc1ncnc2sccc12 | 2860 | 14.2 | 1710 | 4.17 | 1590 nM | 3.12 µM | > 100000 | > 100 | 1590 | 3.65 |  | 
10 | C[C@@]1(O)CCC[C@H]1n1c(=O)c(C(F)F)cc2cnc(NC3CCN(S(C)(=O)=O)CC3)nc21 | 1480 | 7.28 |  |  | 1400 nM | 9.01 µM | 12700 | > 100 | 2100 | > 100 |  | 
11 | CN(C)C1C(=O)C(C(N)=O)=C(O)C2(O)C(=O)C3=C(O)c4c(O)cccc4C(C)(O)C3CC12 (centres undefined) |  | > 100 |  | > 100 | 21000 nM and > 100000 nM | 36.8 µM and > 100 µM |  | > 100 |  | > 100 |  | 
12 | Cc1nc2ccccc2c(/C=C/c2ccccc2)c1C(=O)/C=C/c1ccccc1 |  |  |  |  | 2360 nM | 6.71 µM | 2710 | 8.35 |  |  |  | 
